In BindingDB's records for doi:10.1021/cb500828m (Vanderbilt University, 2015):

Molecular target: T1, Phospholipase D1 (Homo sapiens, UniProt Q13393)
T1 sequence (Q13393 whole entry): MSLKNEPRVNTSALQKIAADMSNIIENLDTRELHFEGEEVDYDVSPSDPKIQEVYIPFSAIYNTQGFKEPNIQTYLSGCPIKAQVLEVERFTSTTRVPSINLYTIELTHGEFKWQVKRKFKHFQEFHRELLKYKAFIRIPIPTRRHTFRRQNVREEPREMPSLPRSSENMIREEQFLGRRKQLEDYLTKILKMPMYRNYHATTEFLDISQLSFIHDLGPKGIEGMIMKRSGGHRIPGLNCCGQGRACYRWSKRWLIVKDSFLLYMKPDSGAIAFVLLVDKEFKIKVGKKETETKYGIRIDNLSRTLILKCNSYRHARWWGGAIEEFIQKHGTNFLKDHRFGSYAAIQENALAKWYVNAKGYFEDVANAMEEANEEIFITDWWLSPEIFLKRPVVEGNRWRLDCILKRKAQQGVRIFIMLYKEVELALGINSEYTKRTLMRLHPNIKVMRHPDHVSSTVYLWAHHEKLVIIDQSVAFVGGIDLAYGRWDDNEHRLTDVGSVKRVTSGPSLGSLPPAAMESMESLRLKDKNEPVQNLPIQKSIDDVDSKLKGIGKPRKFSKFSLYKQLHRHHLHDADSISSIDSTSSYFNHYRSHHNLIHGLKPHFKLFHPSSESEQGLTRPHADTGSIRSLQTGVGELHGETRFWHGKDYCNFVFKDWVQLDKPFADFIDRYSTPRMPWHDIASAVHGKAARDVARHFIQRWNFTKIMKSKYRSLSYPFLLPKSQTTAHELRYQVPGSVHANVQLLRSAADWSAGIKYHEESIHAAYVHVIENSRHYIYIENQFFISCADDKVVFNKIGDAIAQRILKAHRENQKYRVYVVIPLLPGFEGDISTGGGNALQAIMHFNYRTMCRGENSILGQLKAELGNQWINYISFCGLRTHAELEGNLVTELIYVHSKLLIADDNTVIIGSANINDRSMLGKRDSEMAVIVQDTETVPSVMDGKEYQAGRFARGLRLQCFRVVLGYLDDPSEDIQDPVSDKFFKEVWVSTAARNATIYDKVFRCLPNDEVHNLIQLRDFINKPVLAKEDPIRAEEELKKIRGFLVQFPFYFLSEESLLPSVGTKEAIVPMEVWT
Assay: In vivo Deuterated 1-Butanol PLD Assay
Method: Cells were seeded into 12-well tissue culture plates to reach 90% confluence at the time of assay. All cell types, aside from the HEK293-gfpPLD2 cells, were serum-starved 18 h prior to experiment in DMEM, 0.5% FBS, 1% AA. Cells werepretreated in the presence of test compound (50 μM to 5 nM) or DMSO (vehicle control) in DMEM for 5 min at rt. After pretreatment, media was removed, and cells were treated with DMEM + 1 μM PMA + 0.3% 1-butanol-d10, and either test compound, DMSO vehicle control, or DMEM alone for 30 min at 37 °C. HEK293-gfpPLD2 cells were treated in the presence of DMEM + 0.3% 1-butanol-d10 and either test compound or DMSO but were not stimulated with PMA. After treatment, samples were extracted, and 1,2-dihexanoyl-snglycero-3-phosphomethanol ([…]) was added as an internal standard. The lipids were isolated, the solvent was evaporated, and the resulting lipid film was resuspended in MS solvent (9:1 methanol/chloroform + 1 μL of NH4OH). Samples were

Compound: Oc1ccc(-c2sc3cc(O)ccc3c2-c2ccc(OCCN3CCCCC3)cc2)cc1 [Desketoraloxifene (10)]
- IC50: 6.1 µM
